Laboratory results taken from patent US20240116921A1, “LACTAM (HETERO)[…] DERIVATIVES AS INHIBITORS OF ERBB2” (EnLiven Therapeutics, Inc., priority 2020, published 2024).
Where a name gives a salt, the structure may show the parent alone.

Assays:
[1] = biological target: T1, phosphorylated EGFR (pEGFR) (Homo sapiens, UniProt P00533); assay: Detection of phosphorylated EGFR (pEGFR) in EGF-stimulated A431 cells; assay type: cell-based; settings: A431 cells (10% FBS), 4 hours incubation, EGF 30 ng/mL 10 minutes, AlphaLISA
T1 construct: performed to measure phosphorylated EGFR levels using A431 cells (10% FBS); endogenous in cells; host or cells: A431
How it was run: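 AlphaLISA read-out of EGFR phosphorylation after a 10-min EGF pulse (30 ng/mL final). A431 cells (10% FBS) had been exposed to compound for 4 h at 37 °C. IC50 was fitted from % inhibition normalised to DMSO and staurosporine control lysates.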

[2] = biological target: Ba/F3 ERBB2 A775_G776insYVMA (Homo sapiens, UniProt P04626, DUP772-775, cells depend on it); assay: Cell viability assay, Ba/F3 ERBB2 A775_G776insYVMA; assay type: cell-based, mouse; settings: Ba/F3 ERBB2 YVMA cells, cell viability, 72 hours, CellTiter Glo; Table B5; read-out: Ba/F3 ERBB2 YVMA, IC50
How it was run: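 Viability after 72 h compound treatment (37 °C, 5% CO2) was quantified by CellTiter-Glo luminescence of intracellular ATP, with sigmoidal dose-response fitting. Cells were retrovirally engineered Ba/F3 lines whose growth depends on the mutant human ERBB2 in place of IL-3, plated at 3000 per well.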

[3] = biological target: T2, phosphorylated ERBB2 (pERBB2) (Homo sapiens, UniProt P04626); assay: Detection of phosphorylated ERBB2 (pERBB2) by ELISA in BT-474 cells; assay type: cell-based; settings: four hours incubation
T2 construct: endogenous in cells; host or cells: BT-474
How it was run: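 Phospho-ERBB2 in lysates was quantified by sandwich ELISA (A450, TMB) after 4 h compound exposure at 37 °C of BT-474 cells seeded at 2.0×10^4 per well. Compounds tested at 10 µM to 0.01 nM final in four-fold steps; activity normalized to DMSO (0.1%) high and cell-free low controls.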

Chain of Ba/F3 ERBB2 A775_G776insYVMA (P04626 with tags, fused parts or gaps DUP772-775): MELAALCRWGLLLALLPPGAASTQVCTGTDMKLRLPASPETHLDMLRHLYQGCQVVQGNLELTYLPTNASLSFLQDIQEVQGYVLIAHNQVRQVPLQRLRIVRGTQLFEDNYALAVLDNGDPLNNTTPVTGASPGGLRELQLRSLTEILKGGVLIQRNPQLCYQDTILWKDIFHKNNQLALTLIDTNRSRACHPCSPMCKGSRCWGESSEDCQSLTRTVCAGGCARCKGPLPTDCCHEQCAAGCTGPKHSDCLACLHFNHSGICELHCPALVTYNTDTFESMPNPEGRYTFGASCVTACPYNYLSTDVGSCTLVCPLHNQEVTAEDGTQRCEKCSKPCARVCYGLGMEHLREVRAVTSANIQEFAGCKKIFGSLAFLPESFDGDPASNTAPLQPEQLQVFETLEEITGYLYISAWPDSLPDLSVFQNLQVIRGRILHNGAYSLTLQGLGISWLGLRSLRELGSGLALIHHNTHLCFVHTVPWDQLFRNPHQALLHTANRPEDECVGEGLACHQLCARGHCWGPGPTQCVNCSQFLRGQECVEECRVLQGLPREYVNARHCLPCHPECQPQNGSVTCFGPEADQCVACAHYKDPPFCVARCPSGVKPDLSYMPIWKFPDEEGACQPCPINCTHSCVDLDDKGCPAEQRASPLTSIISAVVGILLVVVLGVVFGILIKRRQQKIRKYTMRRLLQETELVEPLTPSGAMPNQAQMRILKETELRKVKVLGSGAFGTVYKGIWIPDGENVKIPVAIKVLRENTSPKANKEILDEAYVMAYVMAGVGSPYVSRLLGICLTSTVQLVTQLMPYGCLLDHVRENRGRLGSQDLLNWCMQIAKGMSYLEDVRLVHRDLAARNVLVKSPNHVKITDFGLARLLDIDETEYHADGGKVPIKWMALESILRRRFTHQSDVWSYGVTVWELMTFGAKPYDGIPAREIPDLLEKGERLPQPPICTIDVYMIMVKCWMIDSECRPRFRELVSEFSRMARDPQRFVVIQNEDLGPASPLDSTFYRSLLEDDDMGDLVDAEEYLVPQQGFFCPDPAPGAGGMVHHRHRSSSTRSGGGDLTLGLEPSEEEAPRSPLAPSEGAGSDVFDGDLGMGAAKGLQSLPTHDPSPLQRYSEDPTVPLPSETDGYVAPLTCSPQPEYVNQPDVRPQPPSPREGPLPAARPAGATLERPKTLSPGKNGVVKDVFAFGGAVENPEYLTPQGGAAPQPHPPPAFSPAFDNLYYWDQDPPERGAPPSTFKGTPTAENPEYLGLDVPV
T1 sequence (P00533 25-1210): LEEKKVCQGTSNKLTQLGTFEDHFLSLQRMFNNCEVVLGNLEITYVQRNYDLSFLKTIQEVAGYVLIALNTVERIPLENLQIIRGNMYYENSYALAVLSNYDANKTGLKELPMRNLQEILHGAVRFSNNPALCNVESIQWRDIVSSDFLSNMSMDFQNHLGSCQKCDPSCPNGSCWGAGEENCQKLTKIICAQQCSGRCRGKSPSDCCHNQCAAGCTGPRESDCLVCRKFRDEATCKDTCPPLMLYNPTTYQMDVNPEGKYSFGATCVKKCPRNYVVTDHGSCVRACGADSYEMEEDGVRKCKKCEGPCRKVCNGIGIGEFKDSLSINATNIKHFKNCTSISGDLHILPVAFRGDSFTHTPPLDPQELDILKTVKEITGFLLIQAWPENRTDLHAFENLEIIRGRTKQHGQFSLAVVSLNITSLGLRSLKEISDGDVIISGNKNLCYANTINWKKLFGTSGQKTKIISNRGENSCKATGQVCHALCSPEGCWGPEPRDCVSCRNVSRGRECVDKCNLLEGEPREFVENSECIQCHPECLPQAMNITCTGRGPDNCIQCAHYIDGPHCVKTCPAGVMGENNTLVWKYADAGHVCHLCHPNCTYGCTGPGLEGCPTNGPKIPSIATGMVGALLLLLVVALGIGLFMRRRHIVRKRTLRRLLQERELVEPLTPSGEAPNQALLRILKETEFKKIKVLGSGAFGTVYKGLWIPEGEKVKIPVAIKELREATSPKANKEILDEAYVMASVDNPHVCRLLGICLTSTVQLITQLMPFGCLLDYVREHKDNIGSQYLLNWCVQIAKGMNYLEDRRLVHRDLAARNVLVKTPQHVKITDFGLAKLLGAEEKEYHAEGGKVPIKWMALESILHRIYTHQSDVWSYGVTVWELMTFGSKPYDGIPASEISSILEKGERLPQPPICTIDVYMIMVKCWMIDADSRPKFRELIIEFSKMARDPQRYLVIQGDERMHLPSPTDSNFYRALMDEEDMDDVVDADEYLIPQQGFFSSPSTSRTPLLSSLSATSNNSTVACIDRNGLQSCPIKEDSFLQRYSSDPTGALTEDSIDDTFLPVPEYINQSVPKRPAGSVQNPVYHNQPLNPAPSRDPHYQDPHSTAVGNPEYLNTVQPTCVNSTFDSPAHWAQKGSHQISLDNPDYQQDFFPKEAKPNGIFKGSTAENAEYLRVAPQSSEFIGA
T2 sequence (P04626 23-1255): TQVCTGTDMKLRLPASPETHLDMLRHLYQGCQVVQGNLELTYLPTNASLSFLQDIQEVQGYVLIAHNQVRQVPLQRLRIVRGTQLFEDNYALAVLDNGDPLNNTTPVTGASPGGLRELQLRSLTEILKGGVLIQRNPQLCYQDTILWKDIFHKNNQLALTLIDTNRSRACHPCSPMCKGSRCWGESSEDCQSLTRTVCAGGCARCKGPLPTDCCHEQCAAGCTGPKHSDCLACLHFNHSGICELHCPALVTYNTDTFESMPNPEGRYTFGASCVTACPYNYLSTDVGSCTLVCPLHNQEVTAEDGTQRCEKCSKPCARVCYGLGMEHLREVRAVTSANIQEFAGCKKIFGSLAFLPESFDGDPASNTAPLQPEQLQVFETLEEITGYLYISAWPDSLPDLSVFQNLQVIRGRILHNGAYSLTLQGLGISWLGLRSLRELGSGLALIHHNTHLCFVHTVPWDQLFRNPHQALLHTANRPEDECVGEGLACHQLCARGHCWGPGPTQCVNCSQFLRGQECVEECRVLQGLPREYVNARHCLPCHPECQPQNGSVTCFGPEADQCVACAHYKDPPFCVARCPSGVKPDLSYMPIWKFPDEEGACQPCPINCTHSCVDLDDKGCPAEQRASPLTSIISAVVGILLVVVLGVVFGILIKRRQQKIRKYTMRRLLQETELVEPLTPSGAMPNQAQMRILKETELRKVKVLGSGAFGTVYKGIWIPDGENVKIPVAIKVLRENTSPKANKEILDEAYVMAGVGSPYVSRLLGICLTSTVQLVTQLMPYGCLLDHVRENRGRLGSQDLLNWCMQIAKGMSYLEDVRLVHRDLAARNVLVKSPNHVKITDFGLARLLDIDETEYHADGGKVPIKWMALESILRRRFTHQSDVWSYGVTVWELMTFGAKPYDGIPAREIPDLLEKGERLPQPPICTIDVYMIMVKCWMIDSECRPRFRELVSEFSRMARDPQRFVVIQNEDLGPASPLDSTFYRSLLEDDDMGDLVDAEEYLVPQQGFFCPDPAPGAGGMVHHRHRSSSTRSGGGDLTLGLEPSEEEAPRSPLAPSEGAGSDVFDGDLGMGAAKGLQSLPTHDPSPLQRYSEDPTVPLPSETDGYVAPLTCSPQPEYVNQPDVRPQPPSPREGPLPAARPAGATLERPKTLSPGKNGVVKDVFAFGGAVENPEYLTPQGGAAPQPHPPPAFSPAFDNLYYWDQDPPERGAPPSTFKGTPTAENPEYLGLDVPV

IC50 [1] [nM]	IC50 [3] [nM]	Compound	GI50 [2] [nM]
1670	72.6	CC1CN(c2cc3c(Nc4ccc(Oc5ccc6c(c5)nnn6C)cc4)ncnc3cn2)C(=O)/C1=C/CN(C)C (single isomer, unassigned) [Compound 136]	18
1010	132	Cc1cc(Nc2ncnc3ccc(N4CC/C(=C\CN(C)C)C4=O)nc23)ccc1Oc1ccc2nccnc2c1 [Compound 61, (E)-3-(2-(dimethylamino)ethylidene)-1-(4-(3-methyl-4-(quinoxalin-6-yloxy)phenylamino)pyrido[3,2-d]pyrimidin-6-yl)pyrrolidin-2-one]	7.15
264	29.7	Cc1cc(Nc2ncnc3ccc(N4CC(C)/C(=C\CN(C)C)C4=O)nc23)ccc1Oc1ccc2c(c1)ncn2C (single isomer, unassigned; enantiomer 1) [Example S58, Enantiomer # 1, (3E)-3-[2-(dimethylamino)ethylidene]-4-methyl-1-[4-({3-methyl-4-[(1-methyl-1,3-benzodiazol-5-yl)oxy]phenyl}amino)pyrido[3,2-d]pyrimidin-6-yl]pyrrolidin-2-one hydrochloride Enantiomer 1]	1.46
76	35.6	Cc1cc(Nc2ncnc3ccc(N4CC/C(=C\CCN(C)C)C4=O)nc23)ccc1Oc1ccc2c(c1)ncn2C [Compound 53, (3E)-3-[3-(dimethylamino)propylidene]-1-[4-({3-methyl-4-[(1-methyl-1,3-benzodiazol-5-yl)oxy]phenyl}amino)pyrido[3,2-d]pyrimidin-6-yl]pyrrolidin-2-one]	2.05
8160	87.2	C=C1CCN(c2ccc3ncnc(Nc4ccc(Oc5ccc6c(c5)ncn6C)c(C)c4)c3n2)C1=O [Compound 87, 1-(4-((3-methyl-4-((1-methyl-1H-benzo[d]imidazol-5-yl)oxy)phenyl)amino)pyrido[3,2-d]pyrimidin-6-yl)-3-methylenepyrrolidin-2-one; formic acid]	23
8180	72.1	C=C1C(=O)N(c2cc3c(Nc4ccc(Oc5ccn6ncnc6c5)c(C)c4)ncnc3cn2)C[C@H]1C [Compound 32, (4S)-4-methyl-1-{4-[(3-methyl-4-{[1,2,4]triazolo[1,5-a]pyridin-7-yloxy}phenyl)amino]pyrido[3,4-d]pyrimidin-6-yl}-3-methylidenepyrrolidin-2-one]	134
3010	8.26	Cc1cc(Nc2ncnc3cnc(N4CC/C(=C\CN5CCC5)C4=O)cc23)ccc1Oc1ccn2ncnc2c1 [Compound 102, (E)-1-(4-((4-([1,2,4]triazolo[1,5-a]pyridin-7-yloxy)-3-methylphenyl)amino)pyrido[3,4-d]pyrimidin-6-yl)-3-(2-(azetidin-1-yl)ethylidene)pyrrolidin-2-one]	7.51
> 10000	146	CC1CN(c2ccc3ncnc(Nc4ccc(Oc5ccn6ncnc6c5)c(F)c4)c3n2)C(=O)/C1=C/CN(C)C (single isomer, unassigned) [Example S127, Enantiomer #2, (E)-1-(4-((4-([1,2,4]triazolo[1,5-a]pyridin-7-yloxy)-3-fluorophenyl)amino)pyrido[3,2-d]pyrimidin-6-yl)-3-(2-(dimethylamino)ethylidene)-4-methylpyrrolidin-2-one]	418
2300	76	CC1CN(c2cc3c(Nc4cc(F)c(Oc5ccc6c(c5)nnn6C)cc4F)ncnc3cn2)C(=O)/C1=C/CN(C)C (single isomer, unassigned) [Example S125, Enantiomer #2, (3E)-1-[4-({2,5-difluoro-4-[(1-methyl-1,2,3-benzotriazol-5-yl)oxy]phenyl}amino)pyrido[3,4-d]pyrimidin-6-yl]-3-[2-(dimethylamino)ethylidene]-4-methylpyrrolidin-2-one]	27
> 10000	26.4	Cc1cc(Nc2ncnc3ccc(N4CC(C)C(=CCN(C)C)C4=O)nc23)ccc1Oc1ccn2ncnc2c1 (single isomer, unassigned) [Example S98, Enantiomer #2, 3-[2-(dimethylamino)ethylidene]-4-methyl-1-{4-[(3-methyl-4-{[1,2,4]triazolo[1,5-a]pyridin-7-yloxy}phenyl)amino]pyrido[3,2-d]pyrimidin-6-yl}pyrrolidin-2-one]	71.2
407	29.3	Cc1cc(Nc2ncnc3ccc(N4CC/C(=C\CN(C)C)C4=O)nc23)ccc1Oc1ccc2c(c1)ncn2C [Compound 38, (3E)-3-[2-(dimethylamino)ethylidene]-1-[4-({3-methyl-4-[(1-methyl-1,3-benzodiazol-5-yl)oxy]phenyl}amino)pyrido[3,2-d]pyrimidin-6-yl]pyrrolidin-2-one]	2
1160	22.3	Cc1cc(Nc2ncnc3cnc(N4CC/C(=C\CN(C)C)C4=O)cc23)ccc1Oc1ccc2c(c1)nnn2C [Compound 101, (E)-3-(2-(dimethylamino)ethylidene)-1-(4-((3-methyl-4-((1-methyl-1H-benzo[d][1,2,3]triazol-5-yl)oxy)phenyl)amino)pyrido[3,4-d]pyrimidin-6-yl)pyrrolidin-2-one]	4.32
> 10000	21.6	Cc1cc(Nc2ncnc3cnc(N4CC/C(=C\CN(C)C)C4=O)cc23)ccc1Oc1ccn2nnnc2c1 [Compound 107, (3E)-3-[2-(dimethylamino)ethylidene]-1-{4-[(3-methyl-4-{[1,2,3,4]tetrazolo[1,5-a]pyridin-7-yloxy}phenyl)amino]pyrido[3,4-d]pyrimidin-6-yl}pyrrolidin-2-one]	81.3
798	15.3	C=C1C(=O)N(c2ccc3ncnc(Nc4ccc(Cc5ccn6ncnc6c5)c(C)c4)c3c2)C2CC12 (single isomer, unassigned) [Example S79, Enantiomer #2, 2-(4-((4-([1,2,4]triazolo[1,5-a]pyridin-7-ylmethyl)-3-methylphenyl)amino)quinazolin-6-yl)-4-methylene-2-azabicyclo[3.1.0]hexan-3-one]	13.7
> 10000	4110	CC1CN(c2cc3c(Nc4ccc(Oc5ccc6c(c5)nnn6C)cc4)ncnc3cn2)C(=O)/C1=C/CN(C)C (single isomer, unassigned) [Compound 137]	473
> 10000	41.3	Cc1cc(Nc2ncnc3cnc(N4CC(C)C(=CCN(C)C)C4=O)cc23)ccc1Oc1ccc2c(c1)ncn2C (single isomer, unassigned) [Example S97, Enantiomer #1, 3-[2-(dimethylamino)ethylidene]-4-methyl-1-[4-({3-methyl-4-[(1-methyl-1,3-benzodiazol-5-yl)oxy]phenyl}amino)pyrido[3,4-d]pyrimidin-6-yl]pyrrolidin-2-one]	45.6
1200	27	C=C1CCCN(c2cc3c(Nc4ccc(Oc5ccc6c(c5)ncn6C)c(C)c4)ncnc3cn2)C1=O [Compound 127, 1-[4-({3-methyl-4-[(1-methyl-1,3-benzodiazol-5-yl)oxy]phenyl}amino)pyrido[3,4-d]pyrimidin-6-yl]-3-methylidenepiperidin-2-one]	24.3
604	17.1	C=C1CCN(c2ccc3ncnc(Nc4ccc(Oc5ccc6c(c5)ncn6C)c(C)c4)c3c2)C1=O [Compound 27, 1-[4-({3-methyl-4-[(1-methyl-1,3-benzodiazol-5-yl)oxy]phenyl}amino)quinazolin-6-yl]-3-methylidenepyrrolidin-2-one]	11.3
794	22.8	C=C1CCCN(c2ccc3ncnc(Nc4ccc(Oc5ccc6c(c5)ncn6C)c(C)c4)c3n2)C1=O [Compound 96, 1-[4-({3-methyl-4-[(1-methyl-1,3-benzodiazol-5-yl)oxy]phenyl}amino)pyrido[3,2-d]pyrimidin-6-yl]-3-methylidenepiperidin-2-one]	18.6
331	17.9	Cc1cc(Nc2ncnc3cnc(N4CC/C(=C\CN(C)C)C4=O)cc23)ccc1Oc1cncc(F)c1 [Compound 155, (3E)-3-[2-(dimethylamino)ethylidene]-1-[4-({4-[(5-fluoropyridin-3-yl)oxy]-3-methylphenyl}amino)pyrido[3,4-d]pyrimidin-6-yl]pyrrolidin-2-one]	35.4
1880	44.9	CCc1ccc(Oc2ccc(Nc3ncnc4ccc(N5CC/C(=C\CN(C)C)C5=O)nc34)cc2C)cn1 [Compound 72, (E)-3-(2-(dimethylamino)ethylidene)-1-(4-((4-((6-ethylpyridin-3-yl)oxy)-3-methylphenyl)amino)pyrido[3,2-d]pyrimidin-6-yl)pyrrolidin-2-one]	5.37
